{"source": "patent US9877836B2", "about": "“Compression resistant implants including an oxysterol and methods of use” (Warsaw Orthopedic, Inc., priority 2015, dated 2018)", "key": {"[1]": {"test_system": "multipotent mesenchymal cells such as M2-10B4 (M2) marrow stromal cells and C3H10T1/2 embryonic fibroblasts", "details": "Kha et al. J Bone Miner Res 19:830-840, 2004; cited from earlier work"}, "Mesenchymal stem cells": {"test_system": "Mesenchymal stem cells", "details": "general statement, no experiment described; cited from earlier work"}, "[2]": {"test_system": "rat spines (posterolateral space, L3-L5)", "assay": "posterolateral spinal fusion in rat two-level spine model", "format": "in vivo", "details": "for bone growth on radiographs: 4-week and 8-week timepoints; for fusion by manual palpation of the spine segments (in words): 8 weeks; for fusion observed in rat spines (manual palpation): matrix of Oxy133, collagen and ceramic wetted with sterile water, two implants bilaterally, 8-week sacrifice, 5/5 spines", "description": "FIG. 6 illustrates uses of a formulation of malleable implants having 20 mg of Oxy133 on each side of the implant, in accordance with the malleable implants described herein. […] A dry composition of a matrix containing Oxy133, collagen and ceramic as described herein was prepared and wetted with sterile water to be implanted in rat spines as shown in FIG. 6. The wetted matrix was cut in half with a razor blade to yield two halves. The two implants were molded into cylindrical shapes prior to insertion and were positioned bilaterally in the posterolateral space of each test subject. Each implant contained 20 mg Oxy133. Radiographs were taken roughly 10 minutes after the procedure, 4 weeks after the procedure, and 8 weeks after the procedure. […] Fusion was tested at 8-week sacrifice by manual palpation. […] A dry composition of a matrix containing Oxy133, collagen and ceramic as described herein was prepared and wetted with sterile water to be implanted in rat spines as shown in FIG. 6. The wetted matrix was cut in half with a razor blade to yield two halves. The two implants were molded into cylindrical shapes prior to insertion and were positioned bilaterally in the posterolateral space of each test subject. Each implant contained 125 mg Oxy133. Radiographs were taken roughly 10 minutes after the procedure, 4 weeks after the procedure, and 8 weeks after the procedure. […] Fusion was tested at 8-week sacrifice by manual palpation."}}, "note": "Entries after “also recorded” stand apart in the source; their conditions may differ.", "data": [{"compound": "CC(C)CCC[C@](C)(O)[C@H]1CC[C@H]2[C@@H]3CC=C4C[C@@H](O)CC[C@]4(C)[C@H]3CC[C@@]21C", "note": "[20(S)-hydroxycholesterol]", "values": [{"measurement": "osteogenic differentiation", "setting": "[1]", "result": "induce osteogenic differentiation"}]}, {"compound": "CC(C)CC[C@@H](O)[C@@H](C)[C@H]1CC[C@H]2[C@@H]3CC=C4C[C@@H](O)CC[C@]4(C)[C@H]3CC[C@]12C", "note": "[22(R)-hydroxycholesterol]", "values": [{"measurement": "osteogenic differentiation", "setting": "[1]", "result": "induce osteogenic differentiation"}]}, {"compound": "CC(C)CC[C@H](O)[C@@H](C)[C@H]1CC[C@H]2[C@@H]3CC=C4C[C@@H](O)CC[C@]4(C)[C@H]3CC[C@]12C", "note": "[22(S)-hydroxycholesterol]", "values": [{"measurement": "osteogenic differentiation", "setting": "[1]", "result": "induce osteogenic differentiation"}]}, {"compound": "CCCCCC[C@](C)(O)[C@H]1CC[C@H]2[C@@H]3C[C@H](O)[C@H]4C[C@@H](O)CC[C@]4(C)[C@H]3CC[C@@]21C", "note": "[Oxy133, (3S,5S,6S,8R,9S,10R,13S,14S,17S)-17-((S)-2-hydroxyoctan-2-yl)-10,13-dimethylhexadecahydro-1H-cyclopenta[α]phenanthrene-3,6-diol]", "values": [{"measurement": "osteoblast differentiation", "setting": "Mesenchymal stem cells", "result": "increased osteoblast differentiation"}, {"measurement": "bone growth on radiographs", "setting": "[2]; implants with 20 mg Oxy133 each", "result": "promoted bridging bone across the transverse processes of L3-L5; also recorded: Bone growth in rat test subjects can be seen"}, {"measurement": "fusion by manual palpation of the spine segments (in words)", "setting": "[2]; implants with 20 mg Oxy133 on each side", "result": "fusion was confirmed"}, {"measurement": "bone growth on radiographs", "setting": "[2]; implants with 125 mg Oxy133 each", "result": "promoted bridging bone across the transverse processes of L3-L5; also recorded: Bone growth in rat test subjects can be seen"}, {"measurement": "fusion by manual palpation of the spine segments (in words)", "setting": "[2]; implants with 125 mg Oxy133 on each side", "result": "fusion was confirmed"}, {"measurement": "fusion observed in rat spines (manual palpation)", "setting": "[2]; each 20 mg Oxy133", "result": 100, "unit": "%"}, {"measurement": "fusion observed in rat spines (manual palpation)", "setting": "[2]; each 125 mg Oxy133", "result": 100, "unit": "%"}]}]}
